Key:
MDA-MB-231 [1] = experiment: Cell viability assay (MTT); type: cell-based; conditions: Homo sapiens
Method: Cells plated at equal density were treated at 500 nM of compounds. […]
(§1) Cells plated at equal density were treated at 250 nM of 4c at 250 nM.
(§2) Data from 3 biologic replicates each with 2 technical replicates. Four parameter dose-response curves generated using GraphPad Prism are shown.
Cell viability relative to vehicle (100%) is shown.
(§3) […] Using CellTiter 96 Non-Radioactive Cell Proliferation Assay (Promega, Corp.) according to manufactures' instructions, formazan was used as an indicator of viable cells at an absorbance 570 nm in a Tecan Microplate Reader M100. Data was calculated as fold change from vehicle and fitted using the 4′parameter logic nonlinear regression model in GraphPad Prism software. (n=3 biologic replicates: with 3 technical replicates each).
A range of compounds were tested by MTT assays for cell viability in MDA-MB-231 triple negative breast cancer (TNBC) cells and MDA-MB-435 HER2++ cancer cells.

MDA-MB-435 [2] = experiment: Cell viability assay (MTT); type: cell-based, human
Method: (§4) Cells plated at equal density were treated at 500 nM of compounds. After 72 hours, cell viability was measured by a MTT assay. n=3; * p<0.05, ** p<0.01, *** p<0.001.
as §1, §2
[…]. GI50 was calculated using Graph pad Prism.
as §3
A range of compounds were tested by MTT assays for cell viability in MDA-MB-231 triple negative breast cancer (TNBC) cells and MDA-MB-435 HER2++ cancer cells. […].

Panc-1 [3] = experiment: Wound healing assay; type: cell-based; conditions: Homo sapiens, 24 hr, read-out: inhibition of Panc-1 cell migration
Method: (§5) Mircrographs were digitally acquired at 0, 12, and 24 hours and the area of the wound quantified relative to the distance at time 0. n=3.
Panc-1 cells plated at equal density were subjected to a scratch in the center and treated with 4c at 0, 150 nM, 250 nM, or 500 nM. Mircrographs were digitally acquired at 0, 12, and 24 hours and the area of the wound quantified relative to the distance at time 0. n=3.

[4] = tested on: RAW264.7 macrophage cell line; experiment: Wound healing assay; type: cell-based, murine; conditions: Mus musculus, read-out: inhibition of wound closure, RAW264.7
Method: as §5
Murine macrophage cell line, RAW264.7, plated at equal density were subjected to a scratch in the center and treated with 4c at 0, 150 nM, 250 nM, or 500 nM. Mircrographs were digitally acquired at 0, 12, and 24 hours and the area of the wound quantified relative to the distance at time 0. n=3.

Panc-1 [5] = experiment: Cell viability assay (MTT); type: cell-based; conditions: Homo sapiens, 120 hours, 0-1000 nM
Method: as §3

MDA-MB-231 [6] = experiment: Initial screening, inhibition of migration (wound gap); type: cell-based; conditions: Homo sapiens
Method: In addition, the inhibition of migration of MDA-MB-231 was determined via the following procedure:
Prior to assays, cells were grown until 80-90% confluence was observed. We used a 75 cm^2 flask for 2.6×10^5 cells/mL in 10 mL and for a 25 cm^2 flask 1.44×10^5 cells/mL in 5 mL. The cells were washed with PBS to remove all traces of FBS. We added 2 mL for a 25 cm^2 flasks or 4 mL for a 75 cm^2 flasks trypsin, and incubated 5-10 min at 37° C. At the end of the incubation time, cells were re-suspended and counted with hemocytometer using 1:2 dilutions with Trypan blue. Subsequently, cell viability was calculated. In a 12 well tissue culture plate, we used the plastic pattern to draw a fine space with a fine marker on the bottom of the plate. Cells were seeded at 1.5-2.2×10^5 cells/mL in 1 mL and incubated for 24 h. Cells were then rinsed with PBS and incubated in starving media (0.5% FBS) overnight. All controls and drugs were tested in triplicate. The negative control for each drug was prepared according to the drug's DMSO concentration. […] The wound was made using a sterile pipette tip of 200 μL. Cells were then rinsed very gently with media without FBS and media with negative controls was added. After a 24 h incubation, the gap distance was evaluated using the software Lumera Infinity Analyze 6.4.0. Pictures were taken at 0, 8, 12 and 24 h using a 10× objective in an Inverted Laboratory Microscope Leica DM IL LED, and an Infinity1-3 3.1 Megapixel USB 2.0 camera CMOS. The percentage of migration was calculated using the following formula: […]

MDA-MB-468 [7] = experiment: Apoptosis assay, caspase 3/7 activity; type: cell-based; conditions: 500 nM, 48 hours
Method: (§6) Cells plated at equal density were treated at 500 nM of compounds. After 48 hours, caspase 3/7 activity was measured by luminescence. n=3; * p<0.05, ** p<0.01.
(§7) Equal number of cells were seeded incubated with vehicle or compounds according to this disclosure at 250 or 500 nM for 48 hrs. Apoptosis was measured using a Caspase-Glo3/7 Luminescence Assay Kit as per manufacturer's instructions (Promega, Corp.). Briefly, Caspase-3/7 Glo reagent was added and incubated at room temperature for 60 min and Caspase-3/7 activities were determined by detecting luminescence using Tecan Microplate Reader M100. (n=3 biologic replicates: with 3 technical replicates each).

MDA-MB-435 [8] = experiment: Apoptosis assay, caspase 3/7 activity; type: cell-based, human; conditions: 500 nM, 48 hours
Method: as §6, §7

MDA-MB-231 [9] = experiment: Apoptosis assay, caspase 3/7 activity; type: cell-based, human; conditions: 500 nM, 48 hours
Method: as §6, §7

MDA-MB-468 [10] = experiment: Cell viability assay (MTT); type: cell-based; conditions: 500 nM, 72 hours
Method: as §4
Equal number of cells were seeded in a 24 well plate and incubated with vehicle or compounds according to this disclosure at concentrations between 1 and 0.001 nM for 72 and 120 hrs. Using CellTiter 96 Non-Radioactive Cell Proliferation Assay (Promega, Corp.) according to manufactures' instructions, formazan was used as an indicator of viable cells at an absorbance 570 nm in a Tecan Microplate Reader M100. Data was calculated as fold change from vehicle and fitted using the 4′parameter logic nonlinear regression model in GraphPad Prism software. (n=3 biologic replicates: with 3 technical replicates each).

MDA-MB-435 [11] = experiment: Initial screening, SRB assay GI50; type: cell-based; conditions: Homo sapiens, 48 hrs, read-out: MDA-MB435 GI50
Method: (§8) For initial screening, the GIso of compounds 4a-4h in the cell lines MDA-MB-231, MDA-MB-435 and MCF-7 was determined via the SRB-assay for 48 hrs as follows:
(§9) A stock solution of compounds was prepared at 50 mM in 100% DMSO. For cells preparation, a flask of 75 cm^2 or 25 cm^2 were used for 2.6×10^5 cells/mL or 1.44×10^5 cells/mL, respectively, with an 80-90% of confluence. Cells were washed with PBS and trypsinized. The concentration of cells was determined using a 1:2 dilutions with Trypan Blue and a hemocytometer. After cell count, the concentration was adjusted to have a 7.0-10.0×10^4 cells/mL. Approximately 100 μL of cells suspension, compounds, control positive and control negative were added in triplicates to a 96 well plate. Positive control used was doxorubicin, and the negative control was DMSO 0.1%. All compounds (4a-h) at 50, 25, 12.5, 6.3, and 1.6 μM were incubated with cells at 37° C. for 48 hrs. For fixation, cold TCA 50% was used and incubated at 4° C. for 1 h. Wells were washed and dried prior to tincture with 100 μL of SRB 0.4%. To remove excess of SRB, acetic acid was used. For analysis, TRIS-BASE Solution (pH=10.5) was used and shaken prior to reading using an ELISA reader at 540 nm and the software SoftMax Pro 4.8. For each compound, 50% growth inhibition (GI50) was calculated from Sigmoidal dose-response curves (variable-slope) that were generated with data obtained from experiments carried out in triplicates (GI50 values were generated with GraphPad Prism V. 6.02, GraphPad Software, Inc.).

MCF-7 = experiment: Initial screening, SRB assay GI50; type: cell-based; conditions: Homo sapiens, MCF7, 48 hrs
Method: as §8, §9

MDA-MB-231 [12] = experiment: Initial screening, SRB assay GI50; type: cell-based; conditions: Homo sapiens, 48 hrs
Method: as §8, §9

GI50 (MDA-MB-435 [11])	GI50 (MCF-7)	GI50 (MDA-MB-231 [12])	SMILES	inhibition at […] (MDA-MB-231 [1]; MDA-MB-231, 250 nM for 48 hours (footnote a; title says 500 nM), read-out: % growth inhibition MDA-MB-231)	cytotoxicity at […] (MDA-MB-231 [1]; 250 nM, 48h, text prints MDA-MB-435 TNBC, read-out: inhibition of cell viability)	GI50 (MDA-MB-435 [2]; Homo sapiens, MDA-MB-435, 72 h, read-out: GI50 MDA-MB-435)	inhibition at […] (Panc-1 [3]; 250 nM)	inhibition at 0.5 µM (Panc-1 [3]; 500 nM)	inhibition at 0.15 µM ([4]; 150 nM)	inhibition at […] ([4]; 250 nM)	GI50 (Panc-1 [5])	inhibition at 0.5 µM (MDA-MB-231 [6]; at 0.5 μM, read-out: Inh. of migration (converted))	inhibition at 1.6 µM (MDA-MB-231 [6]; at 1.6 μM, read-out: Inh. of migration)	effect on cell viability, MDA-MB-435 (MDA-MB-435 [2]; 500 nM)	cytotoxicity at 0.5 µM (MDA-MB-435 [2]; Homo sapiens, MDA-MB-435, 500 nM, 72 hours, read-out: decrease in cell viability, MDA-MB-435)	Caspase 3/7 activity, MDA-MB-468 (MDA-MB-468 [7])	Caspase 3/7 activity compared to the vehicle, MDA-MB-435 (MDA-MB-435 [8])	Caspase 3/7 activity compared to the vehicle, MDA-MB-231 (MDA-MB-231 [9])	effect on cell viability, MDA-MB-468 (MDA-MB-468 [10])
–	–	–	CCn1c2ccccc2c2cc(-n3nncc3-c3ccccc3)ccc21 (racemic) [MBQ-167, reference compound]	36%	~40%	145 nM	40%	50%	30%	30%	155 nM	–	–	–	–	–	–	–	–
80 nM	40 nM	8000 nM	CCn1c2ccccc2c2cc(-n3nnc(C(O)c4cccnc4)c3-c3ccccc3)ccc21 (stereo not shown) [Compound 4b, (1-(9-ethyl-9H-carbazol-3-yl)-5-phenyl-1H-1,2,3-triazol-4-yl) (pyridin-3-yl) methanol]	–	–	–	–	–	–	–	–	25.2%	61.4 ± 9.08%	inhibited cell viability	~80%	significantly increased	increased apoptosis	increased apoptosis	inhibited cell viability

Source: patent publication US20250214973A1, “1,4,5-TRISUBSTITUTED-1,2,3-TRIAZOLES AND USES THEREOF” (UNIVERSITY OF PUERTO RICO, priority 2022, published 2025)
